In PMC9913752, “Proof-of-Concept Study of an Alpha-Fetoprotein-Derived Peptide for the Management of Canine Mammary Cancer” (Animals : an Open Access Journal from MDPI, 2023):
Where a SMILES comes first, the peptide text is derived from it. [ ]: non-standard residue; d: D form. Hyp = O=C(O)[C@@H]1C[C@@H](O)CN1

Experiment: 8-day repeat-dose study, tolerability (blood chemistry, hematology, adverse events) in tumor-bearing dogs
Assay type: in vivo, dog
Conditions: for ALP / ALT / AST / Albumin / BUN / Bicarbonate / Bilirubin Conj. / Calcium / Chloride / Cholesterol / Creatine Kinase / GGT / Globulin / Glucose / HCT / HGB / MCH / MCV / Phosphorous / Platelets / Potassium / RBC / Sodium / Total Bilirubin / Total Protein / WBC: Post: 30 min after last injection on day 8, 10 mg s.c. once daily for 8 days
From the text: Previous studies utilizing repeat dosing in mice and rats established safe starting doses for studies using dogs. Female dogs with one or more spontaneously occurring mammary gland tumors greater than approximately 2 cm in maximum diameter, presenting to the Cancer Institute at the Schwarzman Animal Medical Center in New York City, were screened for inclusion in the study. […] All dogs underwent complete clinical staging, consisting of a complete blood count with cell differential, clinical chemistry, and urinalysis. Dogs were administered AFPep 10 mg s.c. once daily for 8 consecutive days. Tumors were biopsied prior to the administration of AFPep and were surgically removed on day 8 after the last injection of AFPep. Blood levels of AFPep were measured before and 30 minutes following its administration on the first day and eighth day of treatment with AFPep. Histopathology was obtained on all mammary gland tumors. Tolerability was assessed using the Veterinary Cooperative Oncology Group Common Terminology Criteria for Adverse Events. Blood chemistry and hematology analyses were performed at IDEXX Laboratories Inc. (Westbrook, ME, USA), using the Sysmex XT and Beckman AU 5800 systems. This study was approved by the Schwarzman Animal Medical Center IACUC and informed consent was obtained in writing from all owners.

CC(C)[C@@H]1NC(=O)[C@@H]2C[C@@H](O)CN2C(=O)[C@H]([C@@H](C)O)NC(=O)[C@H](CCCCN)NC(=O)[C@H](CCC(=O)O)NC(=O)[C@H](CC(N)=O)NC(=O)CNC(=O)[C@@H]2C[C@@H](O)CN2C(=O)[C@H](CC(N)=O)NC1=O [AFPep] (cyclo(EKT[Hyp]VN[Hyp]GN))
AFPep-related adverse events (VCOG-CTCAE) (10 mg s.c. once a day for 8 days, 6 dogs with mammary cancer): grade-1 injection site reactions in three out of six dogs | complete blood counts with cell differential, clinical chemistry, and urinalysis (30 minutes before first exposure vs 30 minutes after the 8-day administration, 10 mg s.c. once daily, 6 dogs): unchanged | ALP (Dog 1): 261 U/L | ALT (Dog 1): 35 U/L | AST (Dog 1): 14 U/L | Albumin (Dog 1): 3 g/dL | BUN (Dog 1): 27 mg/dL | Bicarbonate (Dog 1): 21 mmol/L | Bilirubin Conj. (Dog 1): 0.1 mg/dL | Calcium (Dog 1): 10 mg/dL | Chloride (Dog 1): 111 mmol/L | Cholesterol (Dog 1): 277 mg/dL | Creatine Kinase (Dog 1): 120 U/L | GGT (Dog 1): 4 U/L | Globulin (Dog 1): 3 g/dL | Glucose (Dog 1): 107 mg/dL | HCT (Dog 1): 39% | HGB (Dog 1): 13 g/dL | MCH (Dog 1): 24 pg | MCV (Dog 1): 68 fL | Phosphorous (Dog 1): 4 mg/dL | Platelets (Dog 1): 438 10^3/µL | Potassium (Dog 1): 4 mmol/L | RBC (Dog 1): 6 10^6/µL | Sodium (Dog 1): 145 mmol/L | Total Bilirubin (Dog 1): 0.1 mg/dL | Total Protein (Dog 1): 6 g/dL | WBC (Dog 1): 18 10^3/µL | ALP (Dog 2): 115 U/L | ALT (Dog 2): 14 U/L | AST (Dog 2): 20 U/L | Albumin (Dog 2): 4 g/dL | BUN (Dog 2): 14 mg/dL | Bicarbonate (Dog 2): 23 mmol/L | Bilirubin Conj. (Dog 2): 0.1 mg/dL | Calcium (Dog 2): 11 mg/dL | Chloride (Dog 2): 108 mmol/L | Creatine Kinase (Dog 2): 225 U/L | GGT (Dog 2): 6 U/L | Globulin (Dog 2): 4 g/dL | Glucose (Dog 2): 178 mg/dL | HCT (Dog 2): 46% | HGB (Dog 2): 17 g/dL | MCH (Dog 2): 23 pg | MCV (Dog 2): 65 fL | Phosphorous (Dog 2): 3 mg/dL | Platelets (Dog 2): 700 10^3/µL | Potassium (Dog 2): 5 mmol/L | RBC (Dog 2): 7 10^6/µL | Sodium (Dog 2): 146 mmol/L | Total Bilirubin (Dog 2): 0.1 mg/dL | Total Protein (Dog 2): 8 g/dL | WBC (Dog 2): 7 10^3/µL | ALP (Dog 3): 178 U/L | ALT (Dog 3): 39 U/L | AST (Dog 3): 15 U/L | Albumin (Dog 3): 4 g/dL | BUN (Dog 3): 14 mg/dL | Bicarbonate (Dog 3): 23 mmol/L | Bilirubin Conj. (Dog 3): 0.1 mg/dL | Calcium (Dog 3): 9 mg/dL | Chloride (Dog 3): 108 mmol/L | Cholesterol (Dog 3): 273 mg/dL | Creatine Kinase (Dog 3): 115 U/L | GGT (Dog 3): 4 U/L | Globulin (Dog 3): 3 g/dL | Glucose (Dog 3): 107 mg/dL | HCT (Dog 3): 46% | HGB (Dog 3): 17 g/dL | MCH (Dog 3): 23 pg | MCV (Dog 3): 64 fL | Phosphorous (Dog 3): 4 mg/dL | Platelets (Dog 3): 558 10^3/µL | Potassium (Dog 3): 5 mmol/L | RBC (Dog 3): 7 10^6/µL | Sodium (Dog 3): 145 mmol/L | Total Bilirubin (Dog 3): 0.1 mg/dL | Total Protein (Dog 3): 7 g/dL | WBC (Dog 3): 6 10^3/µL | ALP (Dog 4): 148 U/L | ALT (Dog 4): 60 U/L | AST (Dog 4): 23 U/L | Albumin (Dog 4): 3 g/dL | BUN (Dog 4): 24 mg/dL | Bicarbonate (Dog 4): 17 mmol/L | Bilirubin Conj. (Dog 4): 0.1 mg/dL | Calcium (Dog 4): 10 mg/dL | Chloride (Dog 4): 114 mmol/L | Cholesterol (Dog 4): 451 mg/dL | Creatine Kinase (Dog 4): 169 U/L | GGT (Dog 4): 6 U/L | Globulin (Dog 4): 4 g/dL | Glucose (Dog 4): 92 mg/dL | HCT (Dog 4): 51% | HGB (Dog 4): 18 g/dL | MCH (Dog 4): 23 pg | MCV (Dog 4): 62 fL | Phosphorous (Dog 4): 3 mg/dL | Platelets (Dog 4): 485 10^3/µL | Potassium (Dog 4): 4.4 mmol/L | RBC (Dog 4): 8 10^6/µL | Sodium (Dog 4): 147 mmol/L | Total Bilirubin (Dog 4): 0.1 mg/dL | Total Protein (Dog 4): 6 g/dL | WBC (Dog 4): 13 10^3/µL | ALP (Dog 5): 15 U/L | ALT (Dog 5): 29 U/L | AST (Dog 5): 26 U/L | Albumin (Dog 5): 4 g/dL | BUN (Dog 5): 15 mg/dL | Bicarbonate (Dog 5): 21 mmol/L | Bilirubin Conj. (Dog 5): 0.1 mg/dL | Calcium (Dog 5): 10 mg/dL | Chloride (Dog 5): 110 mmol/L | Cholesterol (Dog 5): 373 mg/dL | Creatine Kinase (Dog 5): 138 U/L | GGT (Dog 5): 18 U/L | Globulin (Dog 5): 3 g/dL | Glucose (Dog 5): 88 mg/dL | HCT (Dog 5): 48% | HGB (Dog 5): 18 g/dL | MCH (Dog 5): 25 pg | MCV (Dog 5): 67 fL | Phosphorous (Dog 5): 3 mg/dL | Platelets (Dog 5): 462 10^3/µL | Potassium (Dog 5): 5 mmol/L | RBC (Dog 5): 7 10^6/µL | Sodium (Dog 5): 143 mmol/L | Total Bilirubin (Dog 5): 0.1 mg/dL | Total Protein (Dog 5): 7 g/dL | WBC (Dog 5): 7 10^3/µL | ALP (Dog 6): 19 U/L | ALT (Dog 6): 41 U/L | AST (Dog 6): 18 U/L | Albumin (Dog 6): 3 g/dL | BUN (Dog 6): 30 mg/dL | Bicarbonate (Dog 6): 21 mmol/L | Bilirubin Conj. (Dog 6): 0.1 mg/dL | Calcium (Dog 6): 10 mg/dL | Chloride (Dog 6): 114 mmol/L | Cholesterol (Dog 6): 198 mg/dL | Creatine Kinase (Dog 6): 80 U/L | GGT (Dog 6): 5 U/L | Globulin (Dog 6): 3 g/dL | Glucose (Dog 6): 81 mg/dL | HCT (Dog 6): 43% | HGB (Dog 6): 15 g/dL | MCH (Dog 6): 25 pg | MCV (Dog 6): 74 fL | Phosphorous (Dog 6): 6 mg/dL | Platelets (Dog 6): 519 10^3/µL | Potassium (Dog 6): 4 mmol/L | RBC (Dog 6): 6 10^6/µL | Sodium (Dog 6): 143 mmol/L | Total Bilirubin (Dog 6): 0.1 mg/dL | Total Protein (Dog 6): 6 g/dL | WBC (Dog 6): 13 10^3/µL
